Experimental data from ChEMBL document CHEMBL3039007, “Structure-based identification of OATP1B1/3 inhibitors” (Mol Pharmacol, 2013).
Residues, ends and D or L forms follow the SMILES beside them.

Key:
[1] = molecular target: T1, Solute carrier organic anion transporter family member 1B3 (Homo sapiens, UniProt Q9NPD5); conditions: chinese hamster, cho, 10 µM
T1 sequence (Q9NPD5 whole entry): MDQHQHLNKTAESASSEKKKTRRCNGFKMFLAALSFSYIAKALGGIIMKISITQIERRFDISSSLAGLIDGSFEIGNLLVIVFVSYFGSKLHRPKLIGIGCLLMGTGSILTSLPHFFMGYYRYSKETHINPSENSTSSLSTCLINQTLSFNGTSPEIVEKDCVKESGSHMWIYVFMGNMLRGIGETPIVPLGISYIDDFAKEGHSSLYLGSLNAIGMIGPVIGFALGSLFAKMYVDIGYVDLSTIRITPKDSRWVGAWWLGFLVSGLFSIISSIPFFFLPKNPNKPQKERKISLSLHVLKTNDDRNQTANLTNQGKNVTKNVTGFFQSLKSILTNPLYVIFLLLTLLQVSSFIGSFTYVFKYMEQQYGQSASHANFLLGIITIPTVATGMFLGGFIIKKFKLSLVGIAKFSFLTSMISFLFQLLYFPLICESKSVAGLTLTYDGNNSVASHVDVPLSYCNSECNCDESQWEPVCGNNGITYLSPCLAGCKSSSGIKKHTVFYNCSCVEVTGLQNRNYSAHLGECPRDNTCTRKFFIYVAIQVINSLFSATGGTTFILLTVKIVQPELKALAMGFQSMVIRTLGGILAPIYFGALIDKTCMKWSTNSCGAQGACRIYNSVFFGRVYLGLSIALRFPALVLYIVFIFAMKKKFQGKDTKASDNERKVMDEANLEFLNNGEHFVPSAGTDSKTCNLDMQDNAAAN

[2] = molecular target: T2, Solute carrier organic anion transporter family member 1B1 (Homo sapiens, UniProt Q9Y6L6); conditions: chinese hamster, cho, 10 µM
T2 sequence (Q9Y6L6 whole entry): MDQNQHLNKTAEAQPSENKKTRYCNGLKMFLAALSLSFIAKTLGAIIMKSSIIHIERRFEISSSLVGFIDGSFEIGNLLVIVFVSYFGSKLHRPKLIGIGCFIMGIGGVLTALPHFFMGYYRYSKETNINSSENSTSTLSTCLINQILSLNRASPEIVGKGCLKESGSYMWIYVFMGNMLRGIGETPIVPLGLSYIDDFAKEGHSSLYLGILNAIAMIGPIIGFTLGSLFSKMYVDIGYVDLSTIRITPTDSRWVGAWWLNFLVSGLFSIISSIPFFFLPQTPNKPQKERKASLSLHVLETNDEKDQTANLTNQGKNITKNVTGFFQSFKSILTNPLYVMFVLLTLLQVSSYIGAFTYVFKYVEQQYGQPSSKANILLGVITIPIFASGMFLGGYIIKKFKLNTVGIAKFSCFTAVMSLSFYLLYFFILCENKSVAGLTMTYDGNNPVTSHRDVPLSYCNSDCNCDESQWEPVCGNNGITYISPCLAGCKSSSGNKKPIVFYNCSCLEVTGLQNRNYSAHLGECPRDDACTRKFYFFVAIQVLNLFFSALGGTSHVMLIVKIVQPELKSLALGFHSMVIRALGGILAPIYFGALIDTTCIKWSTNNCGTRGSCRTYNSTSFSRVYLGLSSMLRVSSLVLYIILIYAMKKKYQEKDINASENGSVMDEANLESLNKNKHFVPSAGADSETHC

SMILES | residual activity [1] | residual activity [2]
COc1ccc(Cc2nccc3cc(OC)c(OC)cc23)cc1OC.Cl [PAPAVERINE HYDROCHLORIDE] | 113.7% | 266.9%
Oc1ccc(Cl)cc1 [PARACHLOROPHENOL] | 100.4% | 89.66%
N=C1C=CC(=C(c2ccc(N)cc2)c2ccc(N)cc2)C=C1.N=C1C=CC(=C(c2ccc(N)cc2)c2ccc(N)cc2)C=C1.O.O.O=C(O)c1cc2ccccc2c(Cc2c(O)c(C(=O)O)cc3ccccc23)c1O [PARAROSANILINE PAMOATE] | 144.5% | 66.86%
Cn1c(=O)[nH]c2ncn(C)c2c1=O [PARAXANTHINE] | 88.58% | 94.78%
C#CCN(C)Cc1ccccc1.Cl [PARGYLINE HYDROCHLORIDE] | 133.9% | 99.32%
Cl.Cl.Fc1ccc([C@@H]2CCNC[C@H]2COc2ccc3c(c2)OCO3)cc1.Fc1ccc([C@@H]2CCNC[C@H]2COc2ccc3c(c2)OCO3)cc1.O [PAROXETINE HYDROCHLORIDE] | 76.07% | 96.74%
O=C1C=C2C(=CCOC2O)O1 (stereo not drawn) [PATULIN] | 79.09% | 81.5%
COc1ccc(-c2cc(=O)c3c(O)c(OC)c(O[C@@H]4O[C@H](CO[C@@H]5O[C@@H](C)[C@H](O)[C@@H](O)[C@H]5O)[C@@H](O)[C@H](O)[C@H]4O)cc3o2)cc1 [PECTOLINARIN] | 155.8% | 39.1%
CCn1cc(C(=O)O)c(=O)c2cc(F)c(N3CCN(C)CC3)cc21.CS(=O)(=O)O [PEFLOXACIN MESYLATE] | 95.74% | 123.1%
CC(=O)CC1CCCCN1.Cl (stereo not drawn) [PELLETIERINE HYDROCHLORIDE] | 95.02% | 75.96%
CC(C)(S)[C@@H](N)C(=O)O [PENICILLAMINE] | 124% | 100.4%
C=C(C)C1(O)OC(=O)C=C1OC (stereo not drawn) [PENICILLIC ACID] | 96.2% | 110.4%
CC1(C)S[C@@H]2[C@H](NC(=O)COc3ccccc3)C(=O)N2[C@H]1C(=O)[O-].[K+] [PENICILLIN V POTASSIUM] | 108.8% | 91.66%
Oc1c(Cl)c(Cl)c(Cl)c(Cl)c1Cl [PENTACHLOROPHENOL] | 40.68% | 19.96%
CCCC(C)C1(CC)C(=O)NC(=O)NC1=O (stereo not drawn) [PENTOBARBITAL] | 94.07% | 94.35%
CC(C)=CCOc1c2occc2cc2ccc(=O)oc12 [PENTOSALEN] | 131.4% | 222.8%
CC(=O)CCCCn1c(=O)c2c(ncn2C)n(C)c1=O [PENTOXIFYLLINE] | 79.59% | 77.22%
COc1ccc(C(C)=O)c(OC)c1 [PEONOL METHYL ETHER] | 99.54% | 105.9%
CCCN1C[C@H](CSC)C[C@@H]2c3cccc4[nH]cc(c34)C[C@H]21.CS(=O)(=O)O [PERGOLIDE MESYLATE] | 85.27% | 90.15%
C1CCC(C(CC2CCCCN2)C2CCCCC2)CC1.O=C(O)/C=C\C(=O)O (stereo not drawn) [PERHEXILINE MALEATE] | 92.29% | 68.81%
N#Cc1ccc2c(c1)N(CCCN1CCC(O)CC1)c1ccccc1S2 [PERICIAZINE] | 117.1% | 132.5%
C=C(C)[C@H]1CC=C(C(=O)O)CC1 [PERILLIC ACID (-)] | 105% | 102.2%
C=C(C)[C@@H]1CC=C(CO)CC1 [PERILLYL ALCOHOL] | 91.29% | 84.39%
CC(C)(C)N.CCC[C@H](N[C@@H](C)C(=O)N1[C@H](C(=O)O)C[C@@H]2CCCC[C@@H]21)C(=O)OCC [PERINDOPRIL ERBUMINE] | 81.39% | 107.5%
OCCN1CCN(CCCN2c3ccccc3Sc3ccc(Cl)cc32)CC1 [PERPHENAZINE] | 113.3% | 130%

SMILES | residual activity [1] | residual activity [2]
OCC(O)C(O)C(O)C(O)C(O)CO (stereo not drawn) [PERSEITOL] | 73.5% | 60.19%
CO[C@H]1[C@H](O)[C@H](O[C@H]2CC[C@@]3(C=O)[C@H](CC[C@@H]4[C@@H]3CC[C@]3(C)[C@@H](C5=CC(=O)OC5)CC[C@]43O)C2)O[C@@H](C)[C@@H]1O [PERUVOSIDE] | 112.7% | 62.43%
COc1c(C(C)C)oc2cc3oc(=O)ccc3cc12 [PEUCEDANIN] | 105.2% | 101.3%
CC(C)=CCc1c(O)cc2oc(C)cc(=O)c2c1O [PEUCENIN] | 169% | 137.1%
NC(=O)NC(=O)Cc1ccccc1 [PHENACEMIDE] | 104.7% | 93.72%
CCOc1ccc(NC(C)=O)cc1 [PHENACETIN] | 98.3% | 55.67%
Cl.NCC(=O)c1ccccc1 [PHENACYLAMINE HYDROCHLORIDE] | 95.9% | 77.38%
Cl.Nc1ccc(/N=N/c2ccccc2)c(N)n1 [PHENAZOPYRIDINE HYDROCHLORIDE] | 115.3% | 115.4%
NNCCc1ccccc1.O=S(=O)(O)O [PHENELZINE SULFATE] | 110.5% | 91.37%
CC(Oc1ccccc1)C(=O)N[C@@H]1C(=O)N2[C@@H]1SC(C)(C)[C@@H]2C(=O)[O-].[K+] (stereo partly drawn) [PHENETHICILLIN POTASSIUM] | 90.72% | 83.14%
O=C1c2ccccc2C(=O)C1c1ccccc1 [PHENINDIONE] | 128.9% | 89.42%
CN(C)CCC(c1ccccc1)c1ccccn1.O=C(O)/C=C\C(=O)O (stereo not drawn) [PHENIRAMINE MALEATE] | 103.2% | 72.53%
O=C1OC(c2ccc(O)cc2)(c2ccc(O)cc2)c2ccccc21 [PHENOLPHTHALEIN] | 37.96% | 20.62%
CC(C)=CC1C(C(=O)OCc2cccc(Oc3ccccc3)c2)C1(C)C (stereo not drawn) [PHENOTHRIN] | 107.3% | 157.5%
CC(COc1ccccc1)N(CCCl)Cc1ccccc1.Cl (stereo not drawn) [PHENOXYBENZAMINE HYDROCHLORIDE] | 88.73% | 101.5%
Cc1ccc(N(CC2=NCCN2)c2cccc(O)c2)cc1.Cl [PHENTOLAMINE HYDROCHLORIDE] | 86.01% | 85.39%
O=C(Cc1ccccc1)NO [PHENYLACETOHYDROXAMIC ACID] | 75.25% | 58.46%
N[C@@H](Cc1ccccc1)C(=O)N[C@@H](Cc1ccc(O)cc1)C(=O)O [PHENYLALANYLTYROSINE] (H-Phe-Tyr-OH) | 68.6% | 78.59%
CNC[C@H](O)c1cccc(O)c1.Cl [PHENYLEPHRINE HYDROCHLORIDE] | 106.2% | 91.9%
O=C1N=C([O-])NC1(c1ccccc1)c1ccccc1.[Na+] [PHENYTOIN SODIUM] | 97.47% | 95.94%
O=C(CCc1ccc(O)cc1)c1c(O)cc(O)cc1O [PHLORETIN] | 98.4% | 83.5%
O=C(CCc1ccc(O)cc1)c1c(O)cc(O)cc1O[C@@H]1O[C@H](CO)[C@@H](O)[C@H](O)[C@H]1O [PHLORIZIN] | 106.3% | 50.32%
CCOP(=S)(OCC)SCSCC [PHORATE] | 107.3% | 102.7%
CCOP(=S)(OCC)SCn1c(=O)oc2cc(Cl)ccc21 [PHOSALONE] | 124% | 116.2%
